In US4446312A, “C-β-D-Xylopyranoside series compounds” (Seikagaku Kogyo Co., Ltd., priority 1980, dated 1984):
Where two headings read alike, the source gives them in different places.

Key:
[1] = Acute toxicity by oral or intraperitoneal administration to ddY mice; conditions: mouse, in vivo, 7 days, Litchfield-Wilcoxon
Method: The acute toxicity of the compound according to this invention was determined by forced oral or intraperitoneal administration thereof to ddY mice.
To prepare each specimen to be administered, a predetermined amount of each compound shown in Table 1 was dissolved in a physiological saline or suspended in a 0.2% solution of carboxymethylcellulose in a physiological saline. Each specimen was administered orally to a ddY mouse via its stomach tube or injected intraperitoneally.

[2] = system: Sarcoma-180; assay: Activity against a transplantable cancer, Sarcoma-180; assay type: in vivo, ICR-JCL mice; conditions: 100 mg/Kg ip once a day for 10 days, starting 24 hrs. after inoculation
Method: Sarcoma-180 cells (1×10^6 cells) were inoculated subcutaneously into the back skin of each of ICR-JCL mice.
Chemotherapy was given intraperitoneally 24 hrs. after inoculation and performed once a day for 10 days. Each specimen to be administered was prepared by dissolving or suspending 30 mg of each compound according to this invention in 1 ml of a pysiological saline or in 1 ml of a 0.2% solution of carboxymethylcellulose in a physiological saline, respectively.
All the solutions and the suspensions thus prepared were injected at a volume of 0.1 ml as a single dose (100 mg/Kg).
The inhibition ratio (%) was calculated according to the following equation: […]
wherein T represents the mean weight of the tumor Sarcoma-180 in a tested group of mice; and C represents the mean weight of the tumor in a control group of mice.

[3] = system: synthesis of chondroitin sulfate (glycosaminoglycan) in epiphysial cartilages; assay: Effect on synthesis of chondroitin sulfate (35S labelled glycosaminoglycan) in epiphysial cartilage; assay type: cell-based, chick embryos
Source text: In each Figure, the vertical axis denotes the amount of ^35 S labelled chondroitin sulfate (^35 S cpm×10^-4 /μmol·uronic acid), and the horizontal axis denotes the concentration (mM) of each xylopyranoside compound in the culture medium, and
x x: Total uptake amount of ^35 S labelled chondroitin sulfate,
: Amount of ^35 S labelled chondroitin sulfate in culture medium, and
: Amount of ^35 S labelled chondroitin sulfate in tissue.
Epiphysial cartilages were taken from chick embryos aged 12 days in the Tyrode's medium under ice-cooling, and excess tissues were removed therefrom. To 150 mg of cartilages corresponding to five embryos, 5 ml of BGJb [an entirely synthetic culture medium prepared according to a recipe of GIBCO (Grand Island Biological Company)] was added, followed by pre-incubation at a temperature of 37° C. After replacing the culture medium, further 1 ml of BGJb and 5μCi Na2^35 SO4 were added, and the culture system was kept at 37° C. for 3 hours. The culture medium was then replaced by a fresh chase medium containing no isotope. After keeping the culture system at 37° C. for 1 hour, the culture medium was separated from the tissues. To study the effects of the xyloside compound on the synthesis of glycosaminoglycan, the xyloside compound was added in the predetermined concentration to the pre-incubation and incubation media.
After the incubation, the labeled medium containing Na2^35 SO4 was combined with the chase medium. Pronase-P was added thereto in a 0.5 M tris-HCl buffer solution (pH 8.0), and the resulting mixture was digested at 50° C. for 16 hours. The digested reaction mixture was then subjected to gel filtration through a column (1.5×14 cm) packed with Bio-Gel P-2 (available from Bio-Rad Company) using a 0.2 M ammonium formate solution as elute. In this way, the Vo fraction was collected and was then freeze-dried to give crude glycosaminoglycan.
On the other hand, ice-cooled 4 M guanidine hydrochloride was added to the tissues which were previously separated from the culture medium. The resulting mixture was left to stand overnight at a temperature of -20° C., and then homogenized. The obtained homogenate was left to stand overnight at room temperature and centrifuged at a speed of 8,500 rpm to obtain a supernatant. To the obtained liquid, water was added in an amount threefold that of the supernatant. Then, a 95% ethyl alcohol (containing 1.3% of potassium acetate) was added to the resulting mixture in an amount threefold that of the mixture to obtain a precipitate. This procedure was repeated twice, and the combined precipitates were dried in a desiccator. The obtained precipitates were dissolved in a 0.02 M tris-HCl buffer solution (pH 8.0) and digested with Pronase-P (trade name) (available from Kaken Kagaku Co., Ltd.) in the manner similar to the culture medium described above, thereby obtaining crude glycosaminoglycan.
As the xyloside compound, conventional O-paranitrophenyl-β-D-xylopyranoside, and two compounds according to the present invention viz. C-n-butyl-β-D-xylopyranoside and C-ethyl-β-D-xylopyranoside were used. The effects of these xyloside compounds on the total amount of ^35 S labelled glycosaminoglycan synthesized (^35 S uptake amount), the amount thereof liberated to the culture medium and the amount thereof remaining in the tissues were as shown in FIGS. 1 to 3.

[4] = ip, intraperitoneal, read-out: LD50 (ip)

Row | Structure (SMILES) | LD50 at 168 h [1, 4] [mg/kg] | LD50 at 168 h ([1]; oral, read-out: LD50 (po)) [mg/kg] | I.R. (inhibition ratio, tumor weight) [2] [%] | Effectiveness as initiator for the synthesis of chondroitin sulfate [3] | 35S uptake of glycosaminoglycan ([3]; 1 mM) | activity at 1000 µM ([3]; Gallus gallus, 1 mM, read-out: 35S labelled glycosaminoglycan liberated to the culture medium) [%] | fold induction at 1000 µM ([3]; Gallus gallus, 1 mM, read-out: 35S uptake of glycosaminoglycan relative to control) | activity at 1000 µM ([3]; Gallus gallus, 1 mM, read-out: Amount of 35S labelled glycosaminoglycan remaining in the tissues) [%] | 35S uptake of glycosaminoglycan, concentration dependence ([3]; concentration rising from 0.05 mM to 1.0 mM)
1 | CCCC[C@@H]1OC[C@@H](O)[C@H](O)[C@H]1O [C--n-Butyl-β-D-xylopyranoside, C-n-Butyl-β-D-xylopyranoside] | 2400 | 5800 | 69.2 |  |  |  |  |  | 
2 | CC[C@@H]1OC[C@@H](O)[C@H](O)[C@H]1O [C--Ethyl-β-D-xylopyranoside, C-Ethyl-β-D-xylopyranoside] | 2400 | 6900 | 52.8 |  |  |  |  |  | 
3 | O=[N+]([O-])c1ccc(O[C@@H]2OC[C@@H](O)[C@H](O)[C@H]2O)cc1 [O-paranitrophenyl-β-D-xylopyranoside] |  |  |  | extremely effective | 40,800 count per minute (cpm) | 95 | 2.35 | 11 | increased
